# Measured values taken from the supplement of paper PMC10307832.
# How the values were obtained:
# [1] = compound: COCC[n+]1c2c(n(Cc3cnccn3)c1C)C(=O)c1ccccc1C2=O [YM155] + Cc1cc(Nc2cc(N3CCN(C)CC3)nc(Sc3ccc(NC(=O)C4CC4)cc3)n2)n[nH]1 [Tozasertib] (partner 0.1 µM); experiment: relative viability (nuclei count vs DMSO), 5 days (fraction); higher = more cells survive
# Method in brief: (§1)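 The day after seeding in 1536-well plates, lung cancer cell lines were treated by pin tool with a single drug, or with a fixed anchor-drug dose together with five library-drug doses (not always all listed) in √10 steps. After 5 days, a combined fix-and-stain solution (final 0.05% Triton X-100, 1% formaldehyde, 1 ug/ml Hoechst) was added. Nuclei counted on 4× images gave relative viability as treated counts over vehicle counts, reported as the median of duplicate plates.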
# [2] = compound: CC(C)(C)c1cc(NC(=O)Nc2ccc(-c3cn4c(n3)sc3cc(OCCN5CCOCC5)ccc34)cc2)no1 [Quizartinib] + COc1cc2c(Oc3ccc(NC(=O)C4(C(=O)Nc5ccc(F)cc5)CC4)cc3F)ccnc2cc1OCCCN1CCOCC1 [Foretinib] (partner 0.25 µM); experiment: as above
# Method in brief: as §1
Cell Line,relative viability ([1]; first compound 0.002 µM),relative viability ([1]; first compound 0.006325 µM),relative viability ([1]; first compound 0.02 µM),relative viability ([1]; first compound 0.06325 µM),relative viability ([2]; first compound 0.001 µM),relative viability ([2]; first compound 0.003162 µM),relative viability ([2]; first compound 0.01 µM),relative viability ([2]; first compound 0.03162 µM),relative viability ([2]; first compound 0.1 µM)
201T,0.916,0.961,0.955,0.974,1.07,0.998,1.09,0.942,1.01
A549,,,,,0.949,0.975,1.08,0.818,1.05
A-427,0.238,0.191,0.243,0.177,,0.988,0.97,1.04,0.957
ABC-1,0.163,0.164,0.137,0.151,0.64,0.993,1.1,0.929,0.846
BEN,0.565,0.518,0.587,0.581,0.672,0.772,0.648,0.424,0.672
CAL-12T,0.311,0.336,0.376,0.149,0.781,1.1,1.14,0.935,1.22
COR-L23,0.201,0.175,0.133,0.126,0.979,0.856,1.06,0.973,1.02
COR-L 105,0.345,0.352,0.316,0.327,0.775,0.986,1.03,1,0.964
Calu-6,,,,,0.74,0.779,0.972,0.88,0.899
ChaGo-K-1,0.22,0.208,0.24,0.236,0.974,0.911,0.959,0.866,0.949
EBC-1,,,,,0.0847,0.105,0.0907,0.133,0.121
EKVX,0.401,0.411,0.448,0.379,0.201,0.739,0.749,0.852,0.833
EMC-BAC-2,0.265,0.256,0.273,0.275,0.938,1.02,1.14,,1.01
EPLC-272H,0.349,0.198,0.449,0.223,0.535,0.685,0.75,0.682,0.669
H3255,0.68,0.59,0.616,0.351,0.874,0.84,1.14,1.07,0.763
HARA,0.0954,0.122,0.13,0.121,,0.832,0.952,0.942,0.913
HCC-15,0.4,0.369,0.472,0.251,,0.978,0.979,,0.952
HCC-44,1.01,1.01,0.888,0.273,,,,,
HCC-78,0.442,0.454,0.52,0.498,0.53,0.57,0.573,0.513,0.558
HCC-366,0.142,0.136,0.135,0.113,0.884,0.921,0.992,0.914,0.946
